Source: US20110318741A1, “BIOMARKERS FOR THE TREATMENT OF PSORIASIS” (priority 2010, published 2011)

Test system: proinflammatory gene products in psoriasis lesional skin
Assay: mRNA abundance of inflammatory molecules in skin biopsies by real-time RT-PCR, normalized to hARP
Type: in vivo, human
Conditions: for IL-22/hARP: Gene Expression Median Change (%) / IL-2/hARP: Gene Expression Median Change (%) / p40/hARP: Gene Expression Median Change (%) / CD83/hARP: Gene Expression Median Change (%) / IFNγ/hARP: Gene Expression Median Change (%) / iNOS/hARP: Gene Expression Median Change (%) / DEFB4/hARP: Gene Expression Median Change (%) / IL-17A/hARP: Gene Expression Median Change (%) / CXCL9/hARP: Gene Expression Median Change (%) / MX1/hARP: Gene Expression Median Change (%) / TNFα/hARP: Gene Expression Median Change (%) / IL-8/hARP: Gene Expression Median Change (%) / IL-10/hARP: Gene Expression Median Change (%) / K16/hARP: Gene Expression Median Change (%) / p19/hARP: Gene Expression Median Change (%): subjects also with PASI values
Procedure: mRNA abundance for a variety of inflammatory molecules was measured by real-time RT-PCR and expression was normalized to the house-keeping gene HARP (human acidic ribosomal protein). Inflammatory markers assessed by mRNA levels included the chemokine CXCL9, beta-defensin (DEFB4), interferon-gamma, IL-10, IL-17a, IL-22, IL-8, keratin 16, MX-1, IL-12/23 p40, IL-23 p19, iNOS and TNF. These are inflammatory molecules produced by activated DC populations, Th1, Th17, Th22 T-cells and response genes to interferon (MX-1. CXCL9) or IL-17 (defensin). Keratin 16 was also measured by mRNA levels to assess the epidermal response by an alternate means.
The pharmacodynamic effects of (S)—N-(2-(1-(3-ethoxy-4-methoxyphenyl)-2-(methylsulfonyl)ethyl)-1,3-dioxoisoindolin-4-yl)acetamide were studied in skin biopsies from subjects treated with the compound in a phase 2, multi-center, open-label study evaluating the safety, tolerability, and efficacy of the compound in recalcitrant psoriasis vulgaris. Skin biopsies were taken from uninvolved and involved skin at baseline, and from involved skin after treatment with (S)—N-(2-(1-(3-ethoxy-4-methoxyphenyl)-2-(methylsulfonyl)ethyl)-1,3-dioxoisoindolin-4-yl)acetamide 20 mg BID after 4 and 12 weeks.
The expression of proinflammatory gene products known to be involved in the pathogenesis of psoriasis was measured by real-time polymerase chain reaction (RT-PCR). With regard to gene expression, there were reductions in iNOS and IL-12/IL-23 p40 mRNAs along with reductions in IL-17A and IL-22 mRNAs, indicating inhibition of the Th1, Th17, and Th22 pathways (FIG. 5). […] Normalized IL-17A mRNA levels were reduced by 49% at week 12 and normalized IL-22 mRNA levels were reduced by 100% at week 12. DEFB4, a defensin induced in keratinocytes by IL-17, was reduced by 55% in week 4 biopsies and by 82% in week 12 biopsies. IL-8, which is induced in keratinocytes by IL-17, was reduced by 76% in week 4 biopsies and by 66% in week 12 biopsies.

CCOc1cc([C@@H](CS(C)(=O)=O)N2C(=O)c3cccc(NC(C)=O)c3C2=O)ccc1OC [(S)—N-(2-(1-(3-ethoxy-4-methoxyphenyl)-2-(methylsulfonyl)ethyl)-1,3-dioxoisoindolin-4-yl)acetamide]
IL-22/hARP: Gene Expression Median Change (%) (Week 4, 20 mg BID, No. 10): −74.4% | IL-2/hARP: Gene Expression Median Change (%) (Week 4, 20 mg BID, No. 12): 3.33% | p40/hARP: Gene Expression Median Change (%) (Week 4, 20 mg BID, No. 13): −100% | CD83/hARP: Gene Expression Median Change (%) (Week 4, 20 mg BID, No. 15): −12.4% | IFNγ/hARP: Gene Expression Median Change (%) (Week 4, 20 mg BID, No. 15): −38.2% | iNOS/hARP: Gene Expression Median Change (%) (Week 4, 20 mg BID, No. 15): −61.0% | DEFB4/hARP: Gene Expression Median Change (%) (Week 4, 20 mg BID, No. 16): −55.4% | IL-17A/hARP: Gene Expression Median Change (%) (Week 4, 20 mg BID, No. 16): −72.5% | CXCL9/hARP: Gene Expression Median Change (%) (Week 4, 20 mg BID, No. 17): −30.7% | MX1/hARP: Gene Expression Median Change (%) (Week 4, 20 mg BID, No. 17): −51.1% | TNFα/hARP: Gene Expression Median Change (%) (Week 4, 20 mg BID, No. 17): −13.0% | IL-8/hARP: Gene Expression Median Change (%) (Week 4, 20 mg BID, No. 18): −76.4% | IL-10/hARP: Gene Expression Median Change (%) (Week 4, 20 mg BID, No. 18): −49.1% | K16/hARP: Gene Expression Median Change (%) (Week 4, 20 mg BID, No. 18): −62.0% | p19/hARP: Gene Expression Median Change (%) (Week 4, 20 mg BID, No. 18): −53.4% | CXCL9 (MIG) mRNA: Median % change from baseline (normalized to hARP) (Week 4, 20 mg b.i.d.): −30.7% | DEFB4 mRNA: Median % change from baseline (normalized to hARP) (Week 4, 20 mg b.i.d.): −55.4% | IFN-g mRNA: Median % change from baseline (normalized to hARP) (Week 4, 20 mg b.i.d.): −38.2% | IL-8 mRNA: Median % change from baseline (normalized to hARP) (Week 4, 20 mg b.i.d.): −76.4% | IL-10 mRNA: Median % change from baseline (normalized to hARP) (Week 4, 20 mg b.i.d.): −49.1% | IL-12/IL-23 p40 mRNA: Median % change from baseline (normalized to hARP) (Week 4, 20 mg b.i.d.): −100% | IL-17A mRNA: Median % change from baseline (normalized to hARP) (Week 4, 20 mg b.i.d.): −72.5% | IL-22 mRNA: Median % change from baseline (normalized to hARP) (Week 4, 20 mg b.i.d.): −74.4% | IL-23p19 mRNA: Median % change from baseline (normalized to hARP) (Week 4, 20 mg b.i.d.): −53.4% | K-16 mRNA: Median % change from baseline (normalized to hARP) (Week 4, 20 mg b.i.d.): −62.0% | MX-1 mRNA: Median % change from baseline (normalized to hARP) (Week 4, 20 mg b.i.d.): −51.1% | iNOS mRNA: Median % change from baseline (normalized to hARP) (Week 4, 20 mg b.i.d.): −61.0% | median reduction in normalized MX-1 mRNA (Week 4, 20 mg b.i.d.): 51% | reduction of normalized iNOS mRNA expression (Week 4, 20 mg b.i.d.): 61% | IL-22/hARP: Gene Expression Median Change (%) (Week 12, 20 mg BID, No. 6): −100% | p40/hARP: Gene Expression Median Change (%) (Week 12, 20 mg BID, No. 7): −51.5% | DEFB4/hARP: Gene Expression Median Change (%) (Week 12, 20 mg BID, No. 10): −82.0% | IL-2/hARP: Gene Expression Median Change (%) (Week 12, 20 mg BID, No. 10): −25.0% | IL-17A/hARP: Gene Expression Median Change (%) (Week 12, 20 mg BID, No. 10): −46.7% | CD83/hARP: Gene Expression Median Change (%) (Week 12, 20 mg BID, No. 11): 27.39% | CXCL9/hARP: Gene Expression Median Change (%) (Week 12, 20 mg BID, No. 11): −15.8% | MX1/hARP: Gene Expression Median Change (%) (Week 12, 20 mg BID, No. 11): −51.5% | iNOS/hARP: Gene Expression Median Change (%) (Week 12, 20 mg BID, No. 11): −100% | IFNγ/hARP: Gene Expression Median Change (%) (Week 12, 20 mg BID, No. 12): −15.3% | TNFα/hARP: Gene Expression Median Change (%) (Week 12, 20 mg BID, No. 13): −41.3% | IL-8/hARP: Gene Expression Median Change (%) (Week 12, 20 mg BID, No. 14): −79.2% | IL-10/hARP: Gene Expression Median Change (%) (Week 12, 20 mg BID, No. 14): −15.3% | K16/hARP: Gene Expression Median Change (%) (Week 12, 20 mg BID, No. 14): −82.5% | p19/hARP: Gene Expression Median Change (%) (Week 12, 20 mg BID, No. 14): −67.9% | CXCL9 (MIG) mRNA: Median % change from baseline (normalized to hARP) (Week 12, 20 mg b.i.d.): −36.4% | DEFB4 mRNA: Median % change from baseline (normalized to hARP) (Week 12, 20 mg b.i.d.): −82.3% | IFN-g mRNA: Median % change from baseline (normalized to hARP) (Week 12, 20 mg b.i.d.): −37.6% | IL-8 mRNA: Median % change from baseline (normalized to hARP) (Week 12, 20 mg b.i.d.): −66.5% | IL-10 mRNA: Median % change from baseline (normalized to hARP) (Week 12, 20 mg b.i.d.): −26.5% | IL-12/IL-23 p40 mRNA: Median % change from baseline (normalized to hARP) (Week 12, 20 mg b.i.d.): −86.7% | IL-17A mRNA: Median % change from baseline (normalized to hARP) (Week 12, 20 mg b.i.d.): −49.4% | IL-22 mRNA: Median % change from baseline (normalized to hARP) (Week 12, 20 mg b.i.d.): −100% | IL-23p19 mRNA: Median % change from baseline (normalized to hARP) (Week 12, 20 mg b.i.d.): −68.3% | K-16 mRNA: Median % change from baseline (normalized to hARP) (Week 12, 20 mg b.i.d.): −78.6% | MX-1 mRNA: Median % change from baseline (normalized to hARP) (Week 12, 20 mg b.i.d.): −52.6% | iNOS mRNA: Median % change from baseline (normalized to hARP) (Week 12, 20 mg b.i.d.): −100% | median reduction in K16 mRNA (Week 12, 20 mg b.i.d.): 78% | reduction in normalized MX-1 mRNA (Week 12, 20 mg b.i.d.): 52% | reduction of normalized IL-17A mRNA levels (Week 12, 20 mg b.i.d.): 49% | reduction of normalized IL-22 mRNA levels (Week 12, 20 mg b.i.d.): 100% | reduction of normalized iNOS mRNA expression (Week 12, 20 mg b.i.d.): 100% | reduction in IFN-γ gene expression in the skin (week 4, the three subjects who attained a PASI-75 or better at week 12): 100% | IL-12/23 p40 mRNA levels (week 4 and week 12 biopsies, 20 mg b.i.d.): significant reductions | reduction of normalized expression of IL-8 (week 4 biopsies, 20 mg b.i.d.): 76% | inhibition of gene expression, responders vs non-responders (week 12, 20 mg BID): greater among responders | reduction of normalized expression of IL-8 (week 12 biopsies, 20 mg b.i.d.): 66%
